Columns and labels:
rat BMECs = test: Cytotoxicity of apocynin derivatives on rat BMECs (MTT, 24 h); type: cell-based; settings: 100 μM, vs control, P < 0.05
Protocol: Rat brain microvascular endothelial cells (BMECs) were separated from the cerebral cortex of 18-day-old male Sprague-Dawley rats as described previously ([Biegel et al., 1995]). Briefly, the cerebral cortical tissues were dissected from meninges after the rats were sacrificed, then the tissues were homogenated in physiological buffer solution (pH 7.4). After centrifugation, the pellets were collected, and the microvascular segments were then digested with 0.1% collagenase II at 37°C for 1 h. […] The second passage was used for co-culture of BBB cellular models.
Rat BMECs were collected and seeded into 96-well culture plates at a density of 7.5 × 10^3 cells/well overnight. The cells were treated with different concentrations of the compounds (10, 20, and 100 μM) for 24 h, respectively. Then, 20-μl MTT (5 mg/ml) in fresh medium was added to each well and incubated for another 4 h. Finally, 150μl dimethyl sulfoxide (DMSO) was added to dissolve formazan crystals, and the absorbance was detected at 490 nm in a multiwall-plate reader (BioTek ELx800).

[1] = test system: NF-κB pathway-related proteins; test: Western blot of NF-κB pathway-related proteins, C6 cells; type: cell-based, rat; settings: 20 and 50 μM, 48 h
Protocol: (§1) Briefly, after treatment with indicated concentrations of test compound (20, 50 μM) for 48 h, the cells were collected, and total cell lysates and nucleus fractions were extracted. Twenty micrograms of cellular protein were subjected to electrophoresis on 12% SDS-polyacrylamide gels and then transferred to polyvinylidene difluoride membranes. The membranes were first incubated with 5% BSA for 2 h at 37°C and then incubated with the first antibodies overnight at 4°C. After HRP-labeled secondary antibodies (1:1,000-dilution) incubation, protein bands were visualized with the enhanced chemiluminescence (ECL) detection solution. The intensity of bands was quantified using ImageJ 1.43 software (National Institutes of Health, Bethesda, MD, USA).

ROS levels in C6 cells = test: Intracellular ROS levels (DCF, flow cytometry), C6 cells; type: cell-based, rat; settings: 20 and 50 μM, 48 h, P < 0.05
Protocol: Intracellular reactive oxygen species (ROS) levels were detected using Reactive Oxygen Species Assay Kit (Jiancheng Bioengineering, Nanjing, China) as per the manufacturer’s instruction. Brieﬂy, after treatment with indicated concentrations of test compound (20, 50 μM) for 48 h, the cells were incubated in 1 ml 2,7-dichloroﬂuorescin diacetate working solution (100 μM) for 30 min at 37°C in the dark, and washed with PBS. Then ﬂuorescence intensities of intracellular DCF were detected using a FACS Calibur ﬂow cytometer (Becton-Dickinson, San Jose, CA, USA). H2O2 treatment group was used as the positive control group.

C6 glioma = test: Rat C6 glioma model; type: in vivo; settings: C6 glioma-bearing Wistar rats, 25 mg/kg i.p. daily
Protocol: C6 glioma model was established as previously reported ([Xu etal., 2016]). The C6 glioma cells in the logarithmic growth phase were collected for implantation. Male Wistar rats (male, 160–180g) were anesthetized with 10% chloral hydrate, and then a hole (1 mm diameter) was drilled in the cranial bone. C6 cells in PBS were injected slowly (3 × 10^6 cells/rat).
Tumors in the brains of the rats were detected by Bruker 7.0 T Micro-MRI using a T2W RARE sequence (TR/TE 3000/15 ms; slice thickness, 1.0 mm; flip angle, 180°; Matrix 256×256; slice gap, 1.0 mm; FOV, 33×33 mm; time, 4.8 min) 7 days after implantation. Tumor volumes (V) were calculated by the following formula: V = (4/3 × π × LHW)/8, where L is the maximum anteroposterior diameter, H and W are the height and width. Then the rats were sacrificed, and the brain tissues were fixed with formalin, embedded in paraffin, sectioned, and subjected to hematoxylin/eosin (HE) staining and immunohistochemical staining for glial fibrillary acidic protein (GFAP) as previously described ([Xu et al., 2016]). The sections from each animal were analyzed by a pathologist. Only rats with maximum intracerebral tumor diameter of >5.0 mm were used.
After the successful implantation, the rats were randomly divided into […] and treated with different drugs by intraperitoneal injection daily: control group (PBS, n = 6), TMZ group (25 mg/kg, n = 6), D14 group (25 mg/kg, n = 6), and D31 group (25 mg/kg, n = 6). The body weights were recorded everyday after administration. Thirteen days after treatment, brain tumors in the rats were detected by Bruker 7.0 T Micro-MRI as described above. Tumor volumes were calculated and recorded as above.

[2] = test system: NF-κB pathway-related proteins; test: Western blot of NF-κB pathway-related proteins, U87 cells; type: cell-based, human; settings: 20 and 50 μM, 48 h
Protocol: as §1

C6 cells = test: Apoptosis by Annexin V-FITC/PI staining, C6 cells; type: cell-based, rat; settings: 48 h, mean ± SD
Protocol: The effects of test compound on apoptosis were detected by Annexin V-FITC/PI staining. Briefly, after treatment with indicated concentrations of test compounds (20, 50 μM) for 48 h, the cells were collected and resuspended in 500-μl detection buffer. Then 5μl PI and 5μl Annexin V-FITC were added to the detection buffer. Then, cells were incubated for 15 min in the dark and analyzed using Flow cytometer (Becton Dickinson) and WinMDI 2.8 software (Scripps Institute, La Jolla, CA, USA).

COc1cc(C(=O)CSCc2ccccc2Cl)ccc1O [Compound D31, 2-((2-Chlorobenzyl)thio)-1-(4-Hydroxy-3-Methoxyphenyl)Ethan-1-One]
Effect on cell viability of rat BMECs (rat BMECs): significantly inhibit the cell viability
IκBα expression [1]: obviously decreased
nucleus p-NF-κB p65 expression [1]: obviously increased
p-IKKα/β expression [1]: obviously increased
Fluorescence intensity of DCF (ROS generation) vs control (ROS levels in C6 cells): significant increases
Body weight changes vs control group (C6 glioma): no obvious body weight changes
Tumor volume vs control group (C6 glioma; MRI 13 days after treatment): significantly decreased
IκBα expression [2]: obviously decreased
nucleus p-NF-κB p65 expression [2]: obviously increased
p-IKKα/β expression [2]: obviously increased
Apoptotic cell rate (C6 cells; 20 μM): 27.9 ± 4.2%
Apoptotic cell rate (C6 cells; 50 μM): 32.2 ± 5.0%

Reference: PMC6733959, “Synthesis and Evaluations of Novel Apocynin Derivatives as Anti-Glioma Agents” (Frontiers in Pharmacology, 2019)
